Consider 18 compounds from patent US20160221989A1, “N-Acylpyrrolidine Ether Tropomyosin-Related Kinase Inhibitors” (Pfizer Inc., priority 2014, published 2016).

The target of this assay is T1, TRKA (Homo sapiens, UniProt P04629).
T1 construct: aa 441-; 4 nM; 40 uM; 35 min; (NTRK1); 796; His; purchased Invitrogen PV3144
Kind of assay: Isolated TRK enzyme assay (HTRF KinEASE-TK kit, PV3144 TrkA enzyme assay). It is filed as biochemical. The conditions noted are these: recombinant His-tagged cytoplasmic domain aa 441-796, 4 nM enzyme, 40 uM ATP, 35 min, arithmetic mean where more than one reading. On the procedure:
Isolated TRK Enzyme assays use the HTRF KinEASE-TK kit (Cisbio Cat#62TKOPEJ) with recombinant His-tagged cytoplasmic domains of TRKA receptor sourced from Invitrogen (see table below). This activity-assay measures the phosphorylation of tyrosine residues within a substrate from the HTRF kit which has been validated by Cisbio for a variety of tyrosine kinases including the TRK receptors.
0.5 mM stock solutions of test compounds are prepared and serially diluted in 100% DMSO. […] Greiner low volume black plates containing 0.2 ul of serially diluted compound, standard and HPE/ZPE are created using the Bravo nanolitre dispenser. 1× enzyme buffer is prepared from 5× Enzymatic Buffer from the Cisbio KinEASE TK kit using MilliQ water. The buffer is then supplemented with 10 mM MgCl and 2 mM DTT (both from Sigma). […] 2×FAC of enzyme and 2×FAC ATP diluted in 1× complete enzyme buffer is incubated at room temperature for 20 minutes to preactivate the enzyme. Following this preactivation step, 5 ul/well of enzyme+ATP mix is added using a Multidrop Micro to the assay plate, spotted with 0.2 ul 100% DMSO compound. This is left for 20 mins at room temperature before adding 5 ul of 2 uM TK-substrate-Biotin (from the Cisbio kit) diluted in 1× enzyme buffer (1 uM FAC) using the Multidrop Micro. The reaction is incubated at room temperature for the optimized assay reaction time (see table).
After the Detection Reagent addition, plates are covered and incubated at room temperature for 60 minutes. HTRF signal is read using an Envision reader, measured as a ratio of emissions at two different wavelengths, 620 nm and 665 nm. […] Test compound data are expressed as percentage inhibition defined by HPE and ZPE values for each plate.
Percentage inhibition in the presence of test compound is plotted against compound concentration on a log scale to determine an IC50 from the resultant sigmoid curve. Cell Based Assays were carried out using Cell lines from DiscoveRx utilising their PathHunter technology and reagents in an antagonist assay:
Where more than one reading was taken, the arithmetic mean is presented.
Background: TR-FRET usually uses a lanthanide donor and a delayed reading to cut background.

As a reminder, the IC50 is the concentration at which inhibition is half-maximal.

T1 sequence (P04629 441-796): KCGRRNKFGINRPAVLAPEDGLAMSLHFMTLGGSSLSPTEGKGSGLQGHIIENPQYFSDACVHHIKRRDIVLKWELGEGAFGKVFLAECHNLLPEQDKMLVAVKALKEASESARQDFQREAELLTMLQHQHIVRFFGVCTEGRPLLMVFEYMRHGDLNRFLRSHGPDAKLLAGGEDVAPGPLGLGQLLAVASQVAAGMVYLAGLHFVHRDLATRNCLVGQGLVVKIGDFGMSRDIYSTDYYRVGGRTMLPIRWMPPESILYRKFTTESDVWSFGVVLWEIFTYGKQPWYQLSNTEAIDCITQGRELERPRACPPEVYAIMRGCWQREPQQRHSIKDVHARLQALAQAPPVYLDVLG

Consider `CC1(C)CN(C(=O)Cc2ccc(OC(F)(F)F)cc2)C[C@@H]1Oc1cc(C(N)=O)cnc1N` [Example 19, (R)-6-amino-5-[(4,4-dimethyl-1-{[4-(trifluoromethoxy)phenyl]acetyl}pyrrolidin-3-yl)oxy]pyridine-3-carboxamide], for which the IC50 was determined as 11.8 nM.

Turning to `CNC(=O)c1cnc(N)c(O[C@H]2CN(C(=O)Cc3ccc(OC(F)(F)F)cc3)C[C@@H]2C)c1` [Example 17, (3R,4S)-6-amino-N-methyl-5-[(4-methyl-1-{[4-(trifluoromethoxy)phenyl]acetyl}pyrrolidin-3-yl)oxy]pyridine-3-carboxamide], the IC50 came to 105 nM.

As for `C[C@H]1CN(C(=O)Cc2ccc(OC(F)(F)F)cc2)C[C@@H]1Oc1cc(C(=O)NCC#N)cnc1N` [Example 22, (3R,4S)-6-amino-N-(cyanomethyl)-5-[(4-methyl-1-{[4-(trifluoromethoxy)phenyl]acetyl}pyrrolidin-3-yl)oxy]pyridine-3-carboxamide], the IC50 turned out to be 330 nM.

For the compound `CCN(CC)C(=O)c1cnc(N)c(OC2CN(C(=O)Cc3ccc(OC(F)(F)F)cc3)CC2(C)OC)c1` (racemic) [Example 25, Racemic-6-amino-N,N-diethyl-5-[(4-methoxy-4-methyl-1-{[4-(trifluoromethoxy)phenyl]acetyl}pyrrolidin-3-yl)oxy]pyridine-3-carboxamide], the IC50 amounted to 129 nM.

Take `NC(=O)c1cnc(N)c(OCC2CN(C(=O)Cc3ccc(OC(F)(F)F)cc3)CC2(F)F)c1` (single isomer, unassigned) [Example 15]: the IC50 is 15.8 nM.

Take `CNC(=O)c1cnc(N)c(OCC2CN(C(=O)Cc3ccc(OC(F)(F)F)cc3)CC2(F)F)c1` (single isomer, unassigned) [Example 11]: the IC50 worked out at 11.6 nM.

For `CNC(=O)c1cnc(N)c(OCC2CN(C(=O)Cc3ccc(OC(F)(F)F)cc3)CC2(F)F)c1` (single isomer, unassigned) [Example 12], the concentration for half-maximal inhibition (IC50) amounted to 1250 nM.

Turning to `C[C@H]1CN(C(=O)Cc2ccc(OC(F)(F)F)cc2)C[C@@H]1Oc1cc(C(=O)NCC(C)(C)O)cnc1N` [Example 23, (3R,4S)-6-amino-N-(2-hydroxy-2-methylpropyl)-5-[(4-methyl-1-{[4-(trifluoromethoxy)phenyl]acetyl}pyrrolidin-3-yl)oxy]pyridine-3-carboxamide], the IC50 amounted to 2100 nM.

For `Nc1ncc(C(=O)NCCO)cc1OC1CN(C(=O)Cc2ccc(OC(F)(F)F)cc2)CC1(F)F` (single isomer, unassigned) [Example 8], the IC50 is 148 nM.

In the case of `CNC(=O)c1cnc(N)c(OC2CN(C(=O)Cc3ccc(OC(F)(F)F)cc3)CC23CC3)c1` (stereo not drawn) [Example 16, 6-amino-N-methyl-5-[(5-{[4-(trifluoromethoxy)phenyl]acetyl}-5-azaspiro[2.4]hept-7-yl)oxy]pyridine-3-carboxamide], the concentration for half-maximal inhibition (IC50) was determined as 72.4 nM.

`CC(C)(O)CNC(=O)c1cnc(N)c(OC2CN(C(=O)Cc3ccc(OC(F)(F)F)cc3)CC2(F)F)c1` (racemic) [Example 10, (S)-6-amino-5-[(4,4-difluoro-1-{[4-(trifluoromethoxy)phenyl]acetyl}pyrrolidin-3-yl)oxy]-N-(2-hydroxy-2-methylpropyl)pyridine-3-carboxamide]: the IC50 came to 8660 nM.

As to `CNC(=O)c1cnc(N)c(O[C@H]2CN(C(=O)Cc3ccc(OC(F)(F)F)cc3)CC2(C)C)c1` [Example 20, (R)-6-amino-5-[(4,4-dimethyl-1-{[4-(trifluoromethoxy)phenyl]acetyl}pyrrolidin-3-yl)oxy]-N-methylpyridine-3-carboxamide], the IC50 was determined as 12.3 nM.

As to `CNC(=O)c1cnc(N)c(OC2CN(C(=O)Cc3ccc(OC(F)(F)F)cc3)CC2(C)OC)c1` (racemic) [Example 24, Racemic-6-amino-5-[(4-methoxy-4-methyl-1-{[4-(trifluoromethoxy)phenyl]acetyl}pyrrolidin-3-yl)oxy]-N-methylpyridine-3-carboxamide], the IC50 was 55.5 nM.

As to `NC(=O)c1cnc(N)c(COC2CN(C(=O)Cc3ccc(OC(F)(F)F)cc3)CC2(F)F)c1` (single isomer, unassigned) [Example 5], the IC50 came out at 10.8 nM.

For `NC(=O)c1cnc(N)c(OC2CN(C(=O)Cc3ccc(OC(F)(F)F)cc3)CC23CC3)c1` (stereo not drawn) [Example 18, 6-amino-5-[(5-{[4-(trifluoromethoxy)phenyl]acetyl}-5-azaspiro[2.4]hept-7-yl)oxy]pyridine-3-carboxamide], the IC50 turned out to be 110 nM.

With `NC(=O)c1cnc(N)c(COC2CN(C(=O)Cc3ccc(OC(F)(F)F)cc3)CC2(F)F)c1` (single isomer, unassigned) [Example 6], the IC50 was found to be 630 nM.

For the compound `CCNC(=O)c1cnc(N)c(O[C@H]2CN(C(=O)Cc3ccc(OC(F)(F)F)cc3)C[C@@H]2C)c1` [Example 21, (3R,4S)-6-amino-N-ethyl-5-[(4-methyl-1-{[4-(trifluoromethoxy)phenyl]acetyl}pyrrolidin-3-yl)oxy]pyridine-3-carboxamide], the IC50 turned out to be 126 nM.

For `NC(=O)c1cnc(N)c(OCC2CN(C(=O)Cc3ccc(OC(F)(F)F)cc3)CC2(F)F)c1` (racemic) [Example 13, Racemic-6-amino-5-[(4,4-difluoro-1-{[4-(trifluoromethoxy)phenyl]acetyl}pyrrolidin-3-yl)methoxy]pyridine-3-carboxamide], the concentration for half-maximal inhibition (IC50) amounted to 30.3 nM.
